Biological target: T1, bovine testis-derived hyaluronidase (Type IV of Sigma) (Bos taurus, UniProt Q2YDK3)
T1 construct: purchased Sigma Type IV; host or cells: bovine testis
T1 sequence (Q2YDK3 36-553): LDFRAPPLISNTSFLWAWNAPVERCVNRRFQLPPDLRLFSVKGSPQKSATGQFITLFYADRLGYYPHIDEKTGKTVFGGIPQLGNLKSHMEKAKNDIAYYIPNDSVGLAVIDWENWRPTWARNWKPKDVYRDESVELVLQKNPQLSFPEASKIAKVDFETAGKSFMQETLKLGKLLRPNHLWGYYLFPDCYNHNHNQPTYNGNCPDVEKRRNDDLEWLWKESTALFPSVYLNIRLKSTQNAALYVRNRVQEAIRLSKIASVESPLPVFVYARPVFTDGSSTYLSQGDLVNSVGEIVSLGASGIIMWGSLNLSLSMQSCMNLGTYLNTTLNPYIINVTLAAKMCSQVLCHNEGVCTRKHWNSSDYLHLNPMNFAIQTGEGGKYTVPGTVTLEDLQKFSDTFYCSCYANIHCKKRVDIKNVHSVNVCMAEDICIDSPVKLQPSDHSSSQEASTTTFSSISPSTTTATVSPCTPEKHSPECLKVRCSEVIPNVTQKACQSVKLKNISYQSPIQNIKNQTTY
Assay: Assay for the hyaluronidase inhibiting activity (inhibition of compound 48/80 activation of inactivated enzyme, colorimetric A585)
Format: biochemical
Settings: 0.1M acetate buffer pH 4.0, 37° C., enzyme activated with compound 48/80, sodium hyaluronate substrate
Description: Stated more specifically, a suitable amount of a test sample was dissolved in 100 μl of a 0.1M acetate buffer solution (pH 4.0) and the solution was pipetted into a test tube. Following the addition of 0.10 mg (100 NF units) of the enzyme dissolved in 50 μl of the same buffer solution, the mixture was incubated at 37° C. for 20 min. […] Thereafter, 200 μg of sodium hyaluronate derived from a microorganism dissolved in 250 μl of the same buffer solution was added and the mixture was incubated at 37° C. for 40 min. Finally, 100 μl of 0.4N NaOH was added and, after cooling with ice, 100 μl of a borate buffer solution (pH 9.10) was added and the mixture was boiled for 3 min; after cooling with ice, 3 ml of a p-dimethylaminobenzaldehyde solution was added and the mixture was incubated for 20 min at 37° C. before [MUT] measurement was conducted. In place of the sample solution, 0.1M acetate buffer solution (pH 4.0) was used to prepare a control. […] The hyaluronidase inhibiting activity of the sample solution was expressed by percent inhibition as determined from the following equation: [formula] where A: [MUT] of the control solution B: [MUT] of the blank for the control solution C: [MUT] of the sample solution D: [MUT] of the blank for the sample solution.

O=C(O)c1cc(=O)c2c(OCC(O)COc3cccc4oc(C(=O)O)cc(=O)c34)cccc2o1 [Sodium cromoglycate]
IC50: 299 µM

Reference: patent US5843911A, “Hyaluronidase inhibitor containing god-type ellagitannin as active ingredient” (Suntory Limited, priority 1995, dated 1998)
